Test results reported in patent US20170224819A1, “Therapeutic Combinations of a BTK Inhibitor, a PI3K Inhibitor, a JAK-2 Inhibitor, and/or a CDK 4/6 Inhibitor” (Acerta Pharma B.V., priority 2014, published 2017).
Entries after “also recorded” stand apart in the source; their conditions may differ.

Assays:
[1] = test system: GPVI platelet aggregation; experiment: GPVI platelet aggregation studies; assay type: cell-based; conditions: read-out: IC50, GPVI platelet aggregation
ID8 ovarian cancer [2] = experiment: ID8 syngeneic orthotropic ovarian cancer model; assay type: in vivo, mice
Text: FIG. 108 illustrates the effects of vehicle on flux at two timepoints, as a control for comparison with FIG. 109, in the ID8 syngeneic orthotropic ovarian cancer model.

CLL = experiment: Clinical study of Formula (XVIII) in CLL; assay type: in vivo
Text: J. Med. 2013, 369, 32-42.

KrasLA2 NSCLC = experiment: KrasLA2 non-small cell lung cancer (NSCLC) model; assay type: in vivo
Text: FIG. 161 illustrates the dosing schema used with the KrasLA2 non-small cell lung cancer (NSCLC) model.
FIG. 162 illustrates tumor volume variation from baseline as assessed by microcomputerized tomography (microCT) in the KrasL2 NSCLC model.

ID8 ovarian cancer [3] = experiment: ID8 syngeneic orthotropic ovarian cancer murine model; assay type: in vivo, mice; conditions: 15 mg/kg/BID orally
Text: Human ovarian cancer models, including the ID8 syngeneic orthotropic ovarian cancer model and other animal models, are described in Fong and Kakar, J. Ovarian Res. 2009, 2, 12; Greenaway et al., Gynecol. Oncol. 2008, 108, 385-94; Urzua et al., Tumour Biol. 2005, 26, 236-44; Janat-Amsbury et al., Anticancer Res. 2006, 26, 3223-28; Janat-Amsbury et al., Anticancer Res. 2006, 26, 2785-89. […] The results of the study are shown in FIG. 108, FIG. 109, FIG. 110, FIG. 111, FIG. 112, FIG. 113, FIG. 114, and FIG. 115.

[4] = test system: human platelet-mediated thrombosis; experiment: In vivo human thrombus formation in the VWF HA1 mice model (laser-induced injury); conditions: pretreated human platelets
Description: Constitutive or aberrant activation of the BCR signaling cascade has been implicated in the propagation and maintenance of a variety of B cell malignancies. […] J. Haematol. […] In fact, both Tec and BTK play an important role in the regulation of phospholipase Cγ2 (PLCγ2) downstream of the collagen receptor glycoprotein VI (GPVI) in human platelets. […] Biotechnol.
Injury to the vessel wall of arterioles ([…] diameter) was performed using a pulsed nitrogen dye laser (440 nm, Photonic Instruments) applied through a 20× water-immersion Olympus objective (LUMPlanFl, 0.5 numerical aperature (NA)) of a Zeiss Axiotech vario microscope. […] The extent of thrombus formation was assessed for 2 minutes after injury and the area (μm^2) of coverage determined (Image IQ, Andor Technology).
The BTK inhibitor-treated human platelets were fluorescently labeled and infused continuously through a catheter inserted into the femoral artery.

[5] = test system: spontaneous pancreatic tumors (KPC mice); experiment: KPC mouse model of advanced pancreatic cancer; assay type: in vivo; conditions: for Tumor volume, average: N=6
Description: The KPC mouse model recapitulates many of the molecular, histopathologic, and clinical features of human disease (Westphalen and Olive, Cancer J. 2012, 18, 502-510). Combination therapy with gemcitabine was also evaluated in this model. Mice were enrolled after identification of spontaneously appearing tumors in the pancreas that were >100 mm^3 (as assessed by high-resolution ultrasonography).

NK cells [6] = experiment: Antibody-dependent NK cell cytokine (IFN-γ) secretion, ELISA; assay type: cell-based, human; conditions: 1 μM, HER18 target cells
Description: Cytokine secretion was determined as follows. […] NK cells from healthy donors were enriched as described above and then added to the target cells and incubated for 4 hours at 37° C. Triplicate cultures were performed on NK cells from donors. After incubation, supernatants were harvested, centrifuged briefly, and then analyzed for interferon-γ using an enzyme-linked immunosorbent assay (ELISA) (R&D Systems, Minneapolis, Minn., USA).

NK cells [7] = experiment: NK cell degranulation (CD107a externalization, flow cytometry); assay type: cell-based, human; conditions: 1 μM, HER18 target cells
Description: Lytic granule release was determined as follows. NK cells from healthy donors were enriched and cultured in the presence of target cells, monoclonal antibodies and test articles as described above. After 4 hours, the cultures were harvested and cells were pelleted, washed, and then stained for flow cytometry evaluation. Degranulation was evaluated via by flow cytometery by externalization of CD107a, a protein normally present on the inner leaflet of lytic granules, and gating on NK cells (CD3-CD16^+ lymphocytes). The percentage of CD107a positive NK cells was quantified by comparison with a negative control (isotype control, unstained cells/FMO). Control cultures (NK cells cultured without target cells, or NK, target cell co-cultures in the absence of appropriate monoclonal antibody) were also evaluated; all experiments were performed in triplicate.

CYP3A4 = CYP3A4 (Homo sapiens, UniProt P08684); experiment: In vitro CYP metabolism and CYP interaction studies; assay type: in vitro ADME
[8] = In vitro metabolism in hepatocytes with 14C-labeled compound; assay type: in vitro ADME, mouse, rat, dog, rabbit, monkey, and human
[9] = Glutathione binding and depletion in vitro; assay type: in vitro ADME
[10] = test system: NSCLC (KrasLA2) lung tumors; experiment: Genetic tumor model of NSCLC (KrasLA2); assay type: in vivo, mice; conditions: 15 mg/kg
Text: The model is designed to have sporadic expression in single cells of G12D mutant Kras off its own promoter triggered by spontaneous intrachromosomal recombination. Johnson, et al. Nature 2001, 410, 1111-16. While the mutant Kras protein is expressed in a few cells in all tissues, tumor development is seen only in the lung at high penetrance.

[11] = Brain PK experiments (brain and CSF versus plasma); assay type: in vivo, Sprague-Dawley rats; conditions: rats, 5 or 30 mg/kg/day
Description: Two vehicle treated rats were sacrificed on each sampling day for comparison.

Txk = Txk (Homo sapiens, UniProt P42681); experiment: biochemical
EGFR = EGFR (Homo sapiens, UniProt P00533); experiment: EGF-induced EGFR phosphorylation in A431 cells (phosphoflow); conditions: 10 μM; A431 human epidermoid cancer cell line
[12] = test system: chronic lymphocytic leukemia (CLL); experiment: Clinical study of Formula (XVIII) in relapsed/refractory CLL

Chain of CYP3A4 (P08684 whole entry): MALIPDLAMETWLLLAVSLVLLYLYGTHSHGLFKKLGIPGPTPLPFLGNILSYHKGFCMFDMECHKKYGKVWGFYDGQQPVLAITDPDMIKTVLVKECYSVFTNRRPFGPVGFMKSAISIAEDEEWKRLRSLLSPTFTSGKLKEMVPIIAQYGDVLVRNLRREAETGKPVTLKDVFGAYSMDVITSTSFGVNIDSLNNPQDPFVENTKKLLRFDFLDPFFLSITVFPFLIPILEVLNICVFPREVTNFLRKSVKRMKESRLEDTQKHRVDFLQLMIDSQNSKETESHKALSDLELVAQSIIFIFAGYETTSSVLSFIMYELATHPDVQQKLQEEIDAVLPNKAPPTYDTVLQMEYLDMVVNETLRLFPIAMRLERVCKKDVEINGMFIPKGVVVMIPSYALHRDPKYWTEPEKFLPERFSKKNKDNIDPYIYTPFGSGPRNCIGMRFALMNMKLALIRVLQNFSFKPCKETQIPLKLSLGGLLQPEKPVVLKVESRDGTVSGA
Chain of Txk (P42681 whole entry): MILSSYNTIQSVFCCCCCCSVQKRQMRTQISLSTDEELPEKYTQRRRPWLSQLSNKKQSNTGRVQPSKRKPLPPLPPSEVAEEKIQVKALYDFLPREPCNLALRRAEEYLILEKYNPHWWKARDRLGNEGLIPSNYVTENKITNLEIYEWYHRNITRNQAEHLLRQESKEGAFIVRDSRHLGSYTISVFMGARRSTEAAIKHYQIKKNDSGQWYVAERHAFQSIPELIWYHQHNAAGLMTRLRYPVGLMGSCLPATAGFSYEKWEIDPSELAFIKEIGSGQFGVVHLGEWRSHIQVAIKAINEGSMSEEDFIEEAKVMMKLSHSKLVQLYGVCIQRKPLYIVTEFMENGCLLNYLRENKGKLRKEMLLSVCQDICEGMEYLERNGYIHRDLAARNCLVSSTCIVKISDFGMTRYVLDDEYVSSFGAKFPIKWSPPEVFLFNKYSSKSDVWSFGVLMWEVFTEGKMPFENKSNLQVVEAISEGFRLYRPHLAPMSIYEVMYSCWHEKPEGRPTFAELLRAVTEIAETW
Chain of EGFR (P00533 25-1210): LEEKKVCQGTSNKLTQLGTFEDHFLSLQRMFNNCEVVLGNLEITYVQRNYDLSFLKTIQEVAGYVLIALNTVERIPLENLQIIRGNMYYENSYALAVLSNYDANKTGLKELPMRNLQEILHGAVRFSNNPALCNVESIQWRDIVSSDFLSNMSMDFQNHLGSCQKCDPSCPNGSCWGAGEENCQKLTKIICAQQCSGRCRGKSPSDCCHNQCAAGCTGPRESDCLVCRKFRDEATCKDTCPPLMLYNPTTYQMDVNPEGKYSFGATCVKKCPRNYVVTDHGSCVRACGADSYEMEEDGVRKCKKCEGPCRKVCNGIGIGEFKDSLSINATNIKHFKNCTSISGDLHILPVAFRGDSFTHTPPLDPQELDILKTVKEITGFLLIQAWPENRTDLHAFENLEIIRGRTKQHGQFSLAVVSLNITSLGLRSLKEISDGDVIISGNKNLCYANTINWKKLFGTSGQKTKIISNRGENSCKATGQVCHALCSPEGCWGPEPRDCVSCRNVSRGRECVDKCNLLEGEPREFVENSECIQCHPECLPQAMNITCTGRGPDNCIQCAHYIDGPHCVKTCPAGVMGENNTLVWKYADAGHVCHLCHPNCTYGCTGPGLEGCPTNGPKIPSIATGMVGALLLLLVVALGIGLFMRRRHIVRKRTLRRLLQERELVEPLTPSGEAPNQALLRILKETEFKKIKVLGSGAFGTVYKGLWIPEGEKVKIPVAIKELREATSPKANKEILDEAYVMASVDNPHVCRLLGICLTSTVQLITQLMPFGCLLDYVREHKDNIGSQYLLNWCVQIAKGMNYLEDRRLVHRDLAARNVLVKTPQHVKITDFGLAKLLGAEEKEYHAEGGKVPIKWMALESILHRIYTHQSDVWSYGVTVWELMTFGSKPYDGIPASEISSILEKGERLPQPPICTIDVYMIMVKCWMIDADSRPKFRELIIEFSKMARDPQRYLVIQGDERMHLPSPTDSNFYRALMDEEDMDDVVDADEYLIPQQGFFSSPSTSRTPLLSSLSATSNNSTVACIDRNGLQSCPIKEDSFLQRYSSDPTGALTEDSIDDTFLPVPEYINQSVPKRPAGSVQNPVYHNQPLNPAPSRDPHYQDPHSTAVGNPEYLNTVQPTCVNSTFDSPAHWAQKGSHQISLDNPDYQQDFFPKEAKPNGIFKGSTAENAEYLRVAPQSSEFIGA

**Q.** With `CC#CC(=O)N1CCC[C@H]1c1nc(-c2ccc(C(=O)Nc3ccccn3)cc2)c2c(N)nccn12` [Formula (XVIII), (S)-4-(8-amino-3-(1-(but-2-ynoyl)pyrrolidin-2-yl)imidazo[1,5-a]pyrazin-1-yl)-N-(pyridin-2-yl)benzamide] as the compound, how does the IC50 [1] read?
**A.** 1150 nM

**Q.** What about the “immunosuppressive tumor associated Tregs” value (ID8 ovarian cancer [2]; FIG. 114) of the same compound?
**A.** significant reduction

**Q.** What about the “CD8+ T cells” value (ID8 ovarian cancer [2]; FIG. 115) of the same compound?
**A.** increase

**Q.** And the “ID8 ovarian cancer growth” value (ID8 ovarian cancer [2]; syngeneic murine model, in comparison to vehicle, FIG. 111)?
**A.** impairs

**Q.** And the “immunosuppressive tumor associated lymphocytes” value (ID8 ovarian cancer [2]; tumor-bearing mice, in comparison to vehicle, FIG. 110)?
**A.** significant reduction

**Q.** What about the “total B cells” value (ID8 ovarian cancer [2]; tumor-bearing mice, FIG. 112) of the same compound?
**A.** significant reduction

**Q.** What about the “B regulatory cells (Bregs)” value (ID8 ovarian cancer [2]; tumor-bearing mice, FIG. 113) of the same compound?
**A.** significant reduction

**Q.** And the apoptosis (CLL; CLL patients, FIG. 157)?
**A.** increased

**Q.** What about the “sum of the product of greatest diameters (SPD)” value (CLL; CLL, compared with ibrutinib, FIG. 138) of the same compound?
**A.** decreases more rapidly

**Q.** What about the “absolute lymphocyte count (ALC)” value (CLL; CLL, relative to ibrutinib (Byrd et al. 2013), FIG. 138) of the same compound?
**A.** much smaller relative increase and much faster decrease

**Q.** And the CXCL12 levels (CLL; patients treated, FIG. 158)?
**A.** decrease

**Q.** What about the CCL2 levels (CLL; patients treated, FIG. 159) of the same compound?
**A.** decrease

**Q.** And the “immunosuppressive tumor associated TAMs” value (KrasLA2 NSCLC; FIG. 163)?
**A.** significant reduction

**Q.** What about the “immunosuppressive tumor associated MDSCs” value (KrasLA2 NSCLC; FIG. 164) of the same compound?
**A.** significant reduction

**Q.** What about the “immunosuppressive tumor associated Tregs” value (KrasLA2 NSCLC; FIG. 165) of the same compound?
**A.** significant reduction

**Q.** And the “CD8+ T cells” value (ID8 ovarian cancer [3])?
**A.** increase in CD8^+ T cells

**Q.** What about the “ID8 ovarian cancer growth” value (ID8 ovarian cancer [3]) of the same compound?
**A.** impairs ID8 ovarian cancer growth

**Q.** And the “Immunosuppressive B cells” value (ID8 ovarian cancer [3])?
**A.** significant reduction in immunosuppressive B cells

**Q.** What about the Immunosuppressive tumor-associated lymphocytes (ID8 ovarian cancer [3]) of the same compound?
**A.** significant reduction in immunosuppressive tumor-associated lymphocytes

**Q.** What about the “Tumor associated Tregs” value (ID8 ovarian cancer [3]) of the same compound?
**A.** significant reduction in immunosuppressive tumor associated Tregs

**Q.** What about the “Effect on human platelet-mediated thrombus formation” value [4] of the same compound?
**A.** does not interfere with thrombus formation; also recorded: no significant effect on human platelet-mediated thrombus formation

**Q.** What about the “CD8+ cells in tumor tissues” value ([5]; 15 mg/kg BID orally) of the same compound?
**A.** significant increase in CD8^+ cells

**Q.** And the “Immunosuppressive TAMs, MDSCs and Tregs in tumor tissues” value ([5]; 15 mg/kg BID orally)?
**A.** significantly reduced

**Q.** What about the “Pancreatic cancer growth and animal survival” value ([5]; 15 mg/kg BID orally) of the same compound?
**A.** substantially slowed pancreatic cancer growth and increased animal survival

**Q.** What about the Survival ([5]; day 14) of the same compound?
**A.** 6/6

**Q.** What about the Survival ([5]; day 28) of the same compound?
**A.** 5/6

**Q.** What about the “Tumor volume, average” value ([5]; day 28, 15 mg/kg BID orally) of the same compound?
**A.** 272 mm^3

**Q.** What about the “Tumor volume, average” value ([5]; predose, 15 mg/kg BID orally) of the same compound?
**A.** 165 mm^3

**Q.** What about the “Inhibition of trastuzumab-stimulated NK cell cytokine release” value (NK cells [6]) of the same compound?
**A.** no inhibitory effect

**Q.** What about the “Inhibition of trastuzumab-stimulated NK cell degranulation” value (NK cells [7]) of the same compound?
**A.** no inhibitory effect

**Q.** And the “CYP catalyzed loss of parent drug” value (CYP3A4; in vitro)?
**A.** metabolized by CYP3A4

**Q.** And the “CYP drug-drug interaction potential” value (CYP3A4; nonclinical CYP interaction studies)?
**A.** very unlikely to cause clinical drug-drug interactions

**Q.** And the Unique human metabolite ([8]; hepatocytes)?
**A.** No unique human metabolite was identified

**Q.** And the Metabolites in hepatocytes ([8]; mouse, rat, dog, rabbit, monkey, and human hepatocytes)?
**A.** two mono-oxidized metabolites and a glutathione conjugate

**Q.** And the “Glutathione binding and depletion” value [9]?
**A.** binds to glutathione but does not deplete glutathione in vitro

**Q.** What about the Number of tumors [10] of the same compound?
**A.** fewer overall tumors

**Q.** What about the Tumor volumes [10] of the same compound?
**A.** significant decrease in tumor volumes versus vehicle

**Q.** What about the “Levels in brain and CSF samples” value [11] of the same compound?
**A.** low but detectable levels

**Q.** And the IC50 (Txk)?
**A.** 291 nM

**Q.** What about the “Inhibition of in vitro EGFR phosphorylation” value (EGFR) of the same compound?
**A.** no inhibition

**Q.** And the “PD (progressive disease)” value ([12]; 100 mg QD (N = 8))?
**A.** 0 (0) n (%)

**Q.** And the “PD (progressive disease)” value ([12]; 175 mg QD (N = 8))?
**A.** 0 (0) n (%)

**Q.** What about the “PD (progressive disease)” value ([12]; 250 mg QD (N = 7)) of the same compound?
**A.** 0 (0) n (%)

**Q.** What about the “PD (progressive disease)” value ([12]; All Cohorts (N = 31)) of the same compound?
**A.** 0 (0) n (%)

**Q.** And the “PR (partial response)” value ([12]; All Cohorts (N = 31))?
**A.** 22 (71) n (%)

**Q.** And the “PR + L (partial response with lymphocytosis)” value ([12]; All Cohorts (N = 31))?
**A.** 7 (23) n (%)

**Q.** What about the “Time of treatment at which the median % change in SPD achieved the same status” value ([12]; CLL patients, present study) of the same compound?
**A.** 7 months

**Q.** And the “PFS (Kaplan-Meier) in comparison to ibrutinib” value ([12]; CLL patients, Log-Rank p-value 0.0206)?
**A.** An improvement in survival and a reduction in risk

**Q.** What about the “Treatment-related adverse event: Headache” value ([12]; Grade 1/2, All (N = 44)) of the same compound?
**A.** 7 (16) n (%)

**Q.** And the “Treatment-related adverse event: Diarrhea” value ([12]; Grade 1, All (N = 44))?
**A.** 4 (9) n (%)

**Q.** What about the “Dose-limiting toxicities (DLTs)” value ([12]; human, in vivo) of the same compound?
**A.** No DLTs were observed

**Q.** What about the “Grade of adverse events” value ([12]; human, in vivo) of the same compound?
**A.** only grade 1 AEs were observed

**Q.** What about the Lymphocytosis ([12]; human, in vivo) of the same compound?
**A.** A lack of lymphocytosis was observed

**Q.** And the “Treatment-related adverse event: Increased tendency to bruise” value ([12]; human, in vivo)?
**A.** 6 (14) n (%)

**Q.** What about the “Treatment-related adverse event: Petechiae” value ([12]; human, in vivo) of the same compound?
**A.** 3 (7) n (%)

**Q.** What about the “Treatment-related serious adverse events (SAEs)” value ([12]; human, in vivo) of the same compound?
**A.** No treatment-related serious adverse events (SAEs) were observed

**Q.** And the “Progression in patients with the 17p deletion” value ([12]; to date)?
**A.** no 17p patients have progressed
